# Tests used:
# Human Factor Xa = molecular target: T1, Human Factor Xa (Homo sapiens, UniProt P00742); assay: Factor Xa enzyme inhibition assay; format: biochemical; conditions: read-out: Factor Xa pIC50 (converted)
# T1 construct: Human Factor Xa was purchased from Enzo Life Sciences; purchased Enzo Life Sciences
# Procedure: Human thrombin was purchased from Biopur. Human trypsin was purchased from Polymun Scientific. Human Factor Xa was purchased from Enzo Life Sciences. Thrombin (20 nM), trypsin (0.000015 %) or Factor Xa (10 nM) were assayed in a similar manner to the KLKs but were incubated with compound for 20 min at room temperature in assay buffer (50 mM Tris HCl, pH 7.6, 100 mM NaCl, 1 mg/ml CHAPS, 0.05 % bovine serum albumin (BSA), 1 mM dithiothreitol (DTT)) before the addition of 5 μM, 2.5 μM or 1.5 μM Rhodamine 110 substrate (Cambridge bioscience ltd) respectively. Fluorescence intensity was then read at ex/em 485/535 following incubation for 1 h at room temperature (thrombin and factor Xa) or 20 min (trypsin).
# KLK4 = KLK4 (Homo sapiens, UniProt Q9Y5K2); assay: KLK4 inhibition (selectivity); format: biochemical; conditions: read-out: KLK4 pIC50 (converted)
# KLK4, sequence (Q9Y5K2 31-254, species assumed): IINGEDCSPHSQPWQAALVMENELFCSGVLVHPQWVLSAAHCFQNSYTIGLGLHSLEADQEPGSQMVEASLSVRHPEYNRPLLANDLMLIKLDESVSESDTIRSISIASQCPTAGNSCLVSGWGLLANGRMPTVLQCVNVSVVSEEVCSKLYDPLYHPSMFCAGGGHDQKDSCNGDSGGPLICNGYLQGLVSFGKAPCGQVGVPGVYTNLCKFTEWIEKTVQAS
# Excerpt: Table 3 Activity of synthesized inhibitors against KLK6 and related proteases. | column: KLK4^a
# in vitro = conditions: female, CD1, mouse, plasma
# Procedure: Plasma protein binding assay: Briefly, a 96 well equilibrium dialysis apparatus was used to determine the free fraction in plasma for each compound (HT Dialysis LLC, Gales Ferry, CT). Membranes (12–14 kDa cut‐off) were conditioned in deionized water for 60 minutes, followed by conditioning in 80 : 20 deionized water: ethanol for overnight at 4 °C and then rinsed in isotonic buffer before use. Female CD1 mouse plasma was removed from the freezer and allowed to thaw on the day of experiment. Thawed plasma was then centrifuged (Allegra X12‐R, Beckman Coulter, USA), spiked with test compound (final concentration 10 μg/mL), and 150 μL aliquots (n=6 replicate determinations) loaded into the 96‐well equilibrium dialysis plate. Dialysis vs isotonic buffer (150 μL) was carried out for 5 h in a temperature‐controlled incubator at 37 °C (Barworld scientific Ltd, UK) using an orbital microplate shaker at 100 rpm (Barworld scientific Ltd, UK). […] All samples were analyzed by UPLC‐MS/MS on a Quattro Premier XE Mass Spectrometer (Waters Corporation, USA). The unbound fraction was determined as the ratio of the peak area in buffer to that in plasma.
# Thermodynamic solubility = format: physicochemical; conditions: thermodynamic from solid, Milli-Q water, 37 °C
# Procedure: Thermodynamic solubility: Test compound (3 mg) is accurately weighed into a Micronics tube. Extra tubes for each control compound, Warfarin (high solubility control) and Cinnarizine (low solubility control) were also accurately weighed. To each tube is added 1 mL of Milli‐Q water. All samples are vortexed for 20 s and placed in a bench top incubator shaker set at 1300 rpm at 37 °C for 5 h. After the incubation, samples are centrifuged at 10,000 rpm for 3 min. 100 μL aliquots of the supernatant in duplicate were placed in a 96‐well plate. All samples, calibration standards and QC samples are analyzed using a validated HPLC method on the Dionex Ultramate 3000 HPLC system. The concentration determined from the supernatant was then reported as the solubility of each compound in μg/mL.
# Plasma stability assay = format: in vitro ADME, mouse
# Procedure: Plasma stability assay: Test compound (10 μM) was incubated in pre‐warmed plasma at 37 °C (that is buffered to pH 7.4 in ratio of 70 : 30 plasma to buffer). Immediately, at time zero, then at 30, 60, 120, and 180 min, a 50 μL aliquot of the incubation mixture was removed and mixed with 200 μL acetonitrile containing Donepezil as the internal standard (50 ng/mL) to stop the reaction. The samples were centrifuged to sediment the precipitated protein and the plates then sealed prior to UPLC‐MS/MS analysis using a Quattro Premier XE (Waters Corporation, USA). XLfit (IDBS, UK) was used to calculate the exponential decay and consequently the rate constant (k) from the ratio of peak area of test compound to internal standard at each time point. The half‐life was calculated for each test compound from the rate by using the following calculation: t1/2=0.693/k
# [1] = Microsomal intrinsic clearance, mouse liver microsomes; format: in vitro ADME
# Procedure: Immediately, at time zero, then at 3, 6, 9, 15 and 30 min an aliquot (50 μL) of the incubation mixture was removed and mixed with acetonitrile (100 μL) to stop the reaction. Internal standard was added to all samples, the samples centrifuged to sediment precipitated protein and the plates then sealed prior to UPLC‐MS/MS analysis using a Quattro Premier XE (Waters Corporation, USA). XLfit (IDBS, UK) was used to calculate the exponential decay and consequently the rate constant (k) from the ratio of peak area of test compound to internal standard at each timepoint. The rate of intrinsic clearance (CLint) of each test compound was then calculated using the following calculation: CLint (mL/min/g liver)=k×V×Microsomal protein yield. Where V (mL/mg protein) is the incubation volume/mg protein added and microsomal protein yield is taken as 52.5 mg protein/g liver. Verapamil (0.5 μM) was used as a positive control to confirm acceptable assay performance.
# KLK6 = KLK6 (Homo sapiens, UniProt Q92876); assay: KLK6 enzymatic inhibition assay (fluorogenic Boc-Phe-Ser-Arg-AMC substrate); format: biochemical; parameters: made in house
# Procedure: Using our previously published KLK6 assay format,21 we performed a HTS with the European Lead Factory (ELF),22 and tested ∼350,000 substances at 10 μM for their ability to reduce KLK6‐catalyzed hydrolysis of the fluorogenic Boc‐Phe‐Ser‐Arg‐AMC peptide.
# High Throughput Screen: The European Lead Factory library of ∼350,000 compounds was used for high throughput screening at the Pivot Park Screening Center facilities in Oss, The Netherlands. […] For SPR, Biacore T200 was used and KLK6 was immobilized onto a CM5 chip. […] An 8 point 1 in 3 dilution series of 1 (50 μM to 0.02 μM) was also applied at the beginning and end of each screening day.
# Enzyme inhibition assays: All chemicals were purchased from Sigma Aldrich (Gillingham, UK) unless otherwise stated.
# [2] = Kinetic aqueous solubility (laser nephelometry); format: physicochemical; conditions: Milli-Q water with […] DMSO, kinetic from dmso stock, 2.5 % DMSO
# Procedure: Kinetic aqueous solubility: The aqueous solubility of the test compounds was measured using laser Nephelometry. Compounds were subjected to serial dilution from 10 mM to 0.5 mM in DMSO. An aliquot was then mixed with Milli‐Q water to obtain an aqueous dilution plate with a final concentration range of 250–12 μM, with a final DMSO concentration of 2.5 %. Triplicate aliquots were transferred to a flat bottomed polystyrene plate which was immediately read on the NEPHELOstar (BMG Lab Technologies). The amount of laser scatter caused by insoluble particulates (relative nephelometry units, RNU) was plotted against compound concentration using a segmental regression fit, with the point of inflection being quoted as the compounds aqueous solubility (μM).
# T1 sequence (P00742 235-488 limits assumed): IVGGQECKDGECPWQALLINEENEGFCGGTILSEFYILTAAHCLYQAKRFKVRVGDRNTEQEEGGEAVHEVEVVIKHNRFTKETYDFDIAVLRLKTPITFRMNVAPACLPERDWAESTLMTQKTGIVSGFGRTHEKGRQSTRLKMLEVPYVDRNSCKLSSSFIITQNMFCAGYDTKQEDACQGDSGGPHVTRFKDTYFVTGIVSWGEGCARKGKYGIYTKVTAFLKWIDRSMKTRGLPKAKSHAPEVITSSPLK
# T1 sequence (P00742 41-179 partner limits assumed): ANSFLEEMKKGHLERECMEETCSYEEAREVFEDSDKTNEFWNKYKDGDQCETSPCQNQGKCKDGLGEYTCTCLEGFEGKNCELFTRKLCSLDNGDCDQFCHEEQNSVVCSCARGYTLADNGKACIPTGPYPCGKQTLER
smiles,measurement,setting,value
"CC[C@H](NC(=O)[C@H]1CN(c2ccc(C(=N)N)cc2)C(=O)O1)c1cccc2ccccc12 [Compound 32, (5R)‐3‐(4‐carbamimidoylphenyl)‐N‐((S)‐1‐(naphthalen‐1‐yl)propyl)‐2‐oxooxazolidine‐5‐carboxamide]",IC50,Human Factor Xa,> 20000 nM
same,IC50,KLK4,158 nM
same,"fraction unbound at 5 h, 10 μg/mL",in vitro,0.11
same,solubility thermodynamic at 5 h,Thermodynamic solubility,2300 µM
same,stability in mouse plasma,Plasma stability assay; over 3 h,no instability
same,half-life at 10 μM,"Plasma stability assay; pH 7.4, mouse plasma, 37 °C, read-out: Mouse Plasma Stability (t1/2)",> 3 h
same,Mouse CLint,[1],2.4 mL/min/g
same,gain in potency for KLK6,KLK6; relative to 5,~100 fold
same,IC50,"KLK6; synthesized inhibitors (Table 3), 8.6 = assay limit, read-out: KLK6 pIC50 (converted)",2.51 nM
same,solubility kinetic,[2],> 250 µM
